A short description of the assay: Inhibition of Burkholderia pseudomallei beta-CA incubated for 15 mins by stopped-flow CO2 hydration assay.

pKi: −log10 of the molar value.

For orientation: pKi means −log10 of the Ki, conventionally taken in molar units. Read a low pKi as a large Ki. `F[P-](F)(F)(F)(F)F.[Na+]` had a pKi of less than 1.00. The compound `OB(O)c1ccccc1` [PHENYLBORONIC ACID] had a pKi of less than 1.00. As to `[N-]=[N+]=[N-]` [SODIUM AZIDE], the pKi is less than 1.00. `O=S([O-])O.[Na+]` [SODIUM BISULFITE] had a negative logarithm of the Ki (pKi) of less than 1.00. To `N#CO` [SODIUM CYANATE] belongs 2.17; to `[F-].[Na+]` [SODIUM FLUORIDE], less than 1.00.

Regarding `[O-][Cl+3]([O-])([O-])O` [SODIUM PERCHLORATE], the pKi was less than 1.00. With `O=S(=O)(O)OOS(=O)(=O)O` [SODIUM PERSULFATE], the negative-log Ki (pKi) was less than 1.00. The compound `O=BOB(O)OB(O)OB=O` [SODIUM TETRABORATE] gave a pKi of less than 1.00.

For `F[B-](F)(F)F.[Na+]` [SODIUM TETRAFLUOROBORATE], the pKi was less than 1.00.

Values taken from ChEMBL document CHEMBL4043124 (Bioorg Med Chem, 2017).
